Counter-ions that a name gives are not always drawn.
Target: T1, recombinant guanylate cyclase reporter cell line (Rattus norvegicus, UniProt P20595)
T1 construct: expressed in transfected cells
T1 sequence (P20595 1-619): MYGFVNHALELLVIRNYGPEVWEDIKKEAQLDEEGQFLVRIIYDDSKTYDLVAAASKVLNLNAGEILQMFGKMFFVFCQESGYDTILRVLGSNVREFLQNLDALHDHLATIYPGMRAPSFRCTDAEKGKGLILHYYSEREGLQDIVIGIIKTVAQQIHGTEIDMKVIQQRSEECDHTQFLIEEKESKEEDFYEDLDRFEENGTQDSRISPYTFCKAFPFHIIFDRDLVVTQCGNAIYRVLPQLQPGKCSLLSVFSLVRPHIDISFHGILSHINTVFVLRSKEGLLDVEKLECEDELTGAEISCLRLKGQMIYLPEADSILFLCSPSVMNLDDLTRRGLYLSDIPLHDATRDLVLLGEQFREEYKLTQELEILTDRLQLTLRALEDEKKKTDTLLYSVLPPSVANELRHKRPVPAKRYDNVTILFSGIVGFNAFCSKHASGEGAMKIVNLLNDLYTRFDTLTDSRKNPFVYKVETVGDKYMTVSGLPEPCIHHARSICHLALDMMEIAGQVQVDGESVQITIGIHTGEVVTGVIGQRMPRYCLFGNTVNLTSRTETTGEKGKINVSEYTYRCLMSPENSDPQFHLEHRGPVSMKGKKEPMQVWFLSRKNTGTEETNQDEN
T1 sequence (P19686 1-690 partner): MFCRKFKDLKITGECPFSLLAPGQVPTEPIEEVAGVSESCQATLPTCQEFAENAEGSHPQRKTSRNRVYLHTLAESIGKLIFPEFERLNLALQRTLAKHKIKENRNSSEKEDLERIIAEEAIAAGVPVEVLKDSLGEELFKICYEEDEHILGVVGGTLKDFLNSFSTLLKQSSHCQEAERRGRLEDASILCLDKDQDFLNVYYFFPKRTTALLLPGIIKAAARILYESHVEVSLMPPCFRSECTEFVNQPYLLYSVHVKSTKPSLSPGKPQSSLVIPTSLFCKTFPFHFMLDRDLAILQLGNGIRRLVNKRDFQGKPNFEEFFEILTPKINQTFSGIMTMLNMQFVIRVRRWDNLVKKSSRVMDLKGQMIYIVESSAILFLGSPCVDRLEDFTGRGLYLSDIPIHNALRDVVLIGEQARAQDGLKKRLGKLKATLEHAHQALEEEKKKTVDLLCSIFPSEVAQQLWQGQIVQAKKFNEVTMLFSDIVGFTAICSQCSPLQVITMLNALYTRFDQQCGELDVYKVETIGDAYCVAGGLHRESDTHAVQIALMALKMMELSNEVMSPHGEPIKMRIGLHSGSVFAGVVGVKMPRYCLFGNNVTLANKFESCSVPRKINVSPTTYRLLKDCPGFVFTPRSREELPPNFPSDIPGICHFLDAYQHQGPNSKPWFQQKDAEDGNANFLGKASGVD
Experiment: Effect on a recombinant guanylate cyclase reporter cell line
Format: cell-based
Settings: for EC50: half maximal effective concentration; for MEC: minimum effective concentration
Protocol: B-1. Effect on a Recombinant Guanylate Cyclase Reporter Cell Line
The cellular activity of the compounds according to the invention was determined using a recombinant guanylate cyclase reporter cell line, as described in F. Wunder et al., Anal. Biochem. 339, 104-112 (2005).

EC50 [nM]	MEC [nM]	SMILES
1.7	0.3	N#CCCN1CCN(c2ccc(-c3ccc(Cl)cc3N3CCCC(n4ncc(C(=O)O)c4C(F)F)C3)cc2)CC1 (single isomer, unassigned; enantiomer 2) [Example 46, 1-(1-{4-Chloro-4′-[4-(2-cyanoethyl)piperazin-1-yl][biphenyl]-2-yl}piperidin-3-yl)-5-(difluoromethyl)-1H-pyrazole-4-carboxylic acid (Enantiomer 2)]
1	<0.3	O=C(O)c1cnn(C2CCCN(c3cc(Cl)ccc3-c3ccc(N4CCN(CCC(F)(F)F)CC4)cc3)C2)c1C(F)F (single isomer, unassigned; enantiomer 2) [Example 23, 1-(1-{4-Chloro-4′-[4-(3,3,3-trifluoropropyl)piperazin-1-yl][biphenyl]-2-yl}piperidin-3-yl)-5-(difluoromethyl)-1H-pyrazole-4-carboxylic acid hydrochloride (Enantiomer 2)]
2.6	0.3	O=C(O)c1cnn(C2CCCN(c3cc(Cl)ccc3-c3ccc(N4CCN(CC5(F)CCC5)CC4)cc3)C2)c1C(F)F (single isomer, unassigned; enantiomer 2) [Example 16, 1-[1-(4-Chloro-4′-{4-[(1-fluorocyclobutyl)methyl]piperazin-1-yl}[biphenyl]-2-yl)piperidin-3-yl]-5-(difluoromethyl)-1H-pyrazole-4-carboxylic acid hydrochloride (Enantiomer 2)]
28.4	3.0	CC(C)CC(=O)N1CCN(c2ccc(-c3ccc(Cl)cc3N3CCCC(n4ncc(C(=O)O)c4C(F)F)C3)cc2)CC1 (single isomer, unassigned; enantiomer 2) [Example 51, 1-(1-{4-Chloro-4′-[4-(3-methylbutanoyl)piperazin-1-yl][biphenyl]-2-yl}piperidin-3-yl)-5-(difluoromethyl)-1H-pyrazole-4-carboxylic acid (Enantiomer 2)]
45	10.0	O=C(O)c1cnn(C2CCCN(c3cc(Cl)ccc3-c3ccc(N4CCCC4)cc3)C2)c1C(F)F (single isomer, unassigned; enantiomer 1) [Example 44, 1-{1-[4-Chloro-4′-(pyrrolidin-1-yl)[biphenyl]-2-yl]piperidin-3-yl}-5-(difluoromethyl)-1H-pyrazole-4-carboxylic acid (Enantiomer 1)]
< 1	0.3	O=C(O)c1cnn(C2CCCN(c3cc(Cl)ccc3-c3ccc(C4CCN(C(=O)C5CC5)CC4)cc3)C2)c1C(F)F (single isomer, unassigned; enantiomer 2) [Example 57, 1-(1-{4-Chloro-4′-[1-(cyclopropylcarbonyl)piperidin-4-yl][biphenyl]-2-yl}piperidin-3-yl)-5-(difluoromethyl)-1H-pyrazole-4-carboxylic acid hydrochloride (Enantiomer 2)]
31.5	3.0	O=C(O)c1cnn(C2CCCN(c3cc(Cl)ccc3-c3ccc(C4CN(CC(F)(F)F)C4)cc3)C2)c1C(F)F (single isomer, unassigned; enantiomer 2) [Example 58, 1-(1-{4-Chloro-4′-[1-(2,2,2-trifluoroethyl)azetidin-3-yl][biphenyl]-2-yl}piperidin-3-yl)-5-(difluoromethyl)-1H-pyrazole-4-carboxylic acid hydrochloride (Enantiomer 2)]
56.5	10.0	CC(C)CN1CCN(c2ccc(-c3ccc(Cl)cc3N3CC(n4ncc(C(=O)O)c4C(F)F)CC(F)(F)C3)cc2)CC1 (single isomer, unassigned; enantiomer 2) [Example 55, 1-{1-[4-Chloro-4′-(4-isobutylpiperazin-1-yl)[biphenyl]-2-yl]-5,5-difluoropiperidin-3-yl}-5-(difluoromethyl)-1H-pyrazole-4-carboxylic acid hydrochloride (Enantiomer 2)]

Continued, compound first:

SMILES	EC50 [nM]	MEC [nM]
O=C(O)c1cnn(C2CCCN(c3cc(Cl)ccc3-c3ccc(N4CCN(CC5CC5F)CC4)cc3)C2)c1C(F)F (single isomer, unassigned; diastereomer 4) [Example 34, 1-[1-[5-Chloro-2-[4-[4-[(trans-2-fluorocyclopropyl)methyl]piperazin-1-yl]phenyl]phenyl]-3-piperidyl]-5-(difluoromethyl)pyrazole-4-carboxylic acid hydrochloride (Diastereomer 4)]	3.4	0.3
O=C(O)c1cnn(C2CCCN(c3cc(Cl)ccc3-c3ccc(N4CCN(CC5CC5(F)F)CC4)cc3)C2)c1C(F)F (single isomer, unassigned; diastereomer 2) [Example 29, 1-{1-[4-Chloro-4′-(4-{[2,2-difluorocyclopropyl]methyl}piperazin-1-yl)[biphenyl]-2-yl]piperidin-3-yl}-5-(difluoromethyl)-1H-pyrazole-4-carboxylic acid hydrochloride (Diastereomer 2)]	2	0.3
CC(F)(F)CN1CCN(c2ccc(-c3ccc(Cl)cc3N3CCCC(n4ncc(C(=O)O)c4C(F)F)C3)cc2)CC1 (single isomer, unassigned; enantiomer 2) [Example 25, 1-(1-{4-Chloro-4′-[4-(2,2-difluoropropyl)piperazin-1-yl][biphenyl]-2-yl}piperidin-3-yl)-5-(difluoromethyl)-1H-pyrazole-4-carboxylic acid hydrochloride (Enantiomer 2)]	2.4	0.3
O=C(O)c1cnn(C2CCCN(c3cc(Cl)ccc3-c3ccc(N4CCN(CC5CC5(F)F)CC4)cc3)C2)c1C(F)F (mixture of isomers) [Example 27, 1-{1-[4-Chloro-4′-(4-{[2,2-difluorocyclopropyl]methyl}piperazin-1-yl)[biphenyl]-2-yl]piperidin-3-yl}-5-(difluoromethyl)-1H-pyrazole-4-carboxylic acid hydrochloride (Diastereomeric mixture 2)]	2.8	0.3
CC(C)CN1CCN(c2ncc(-c3ccc(Cl)cc3N3CCCC(n4ncc(C(=O)O)c4C(F)F)C3)cn2)CC1 (single isomer, unassigned; enantiomer 2) [Example 70, 1-(1-{5-Chloro-2-[2-(4-isobutylpiperazin-1-yl)pyrimidin-5-yl]phenyl}piperidin-3-yl)-5-(difluoromethyl)-1H-pyrazole-4-carboxylic acid hydrochloride (Enantiomer 2)]	21.5	3.0
CC(C)N1CCN(c2ccc(-c3ccc(Cl)cc3N3CCCC(n4ncc(C(=O)O)c4C(F)F)C3)cc2)CC1 (single isomer, unassigned; enantiomer 2) [Example 7, 1-{1-[4-Chloro-4′-(4-isopropylpiperazin-1-yl)[biphenyl]-2-yl]piperidin-3-yl}-5-(difluoromethyl)-1H-pyrazole-4-carboxylic acid hydrochloride (Enantiomer 2)]	43.3	10.0
CN1CCN(c2ncc(-c3ccc(Cl)cc3N3CCCC(n4ncc(C(=O)O)c4C(F)F)C3)cn2)CC1 (single isomer, unassigned; enantiomer 2) [Example 71, 1-(1-{5-Chloro-2-[2-(4-methylpiperazin-1-yl)pyrimidin-5-yl]phenyl}piperidin-3-yl)-5-(difluoromethyl)-1H-pyrazole-4-carboxylic acid hydrochloride (Enantiomer 2)]	92	30.0
O=C(O)c1cnn(C2CCCN(c3cc(Cl)ccc3-c3ccc(N4CCN(C[C@@H]5C[C@@H]5F)CC4)cc3)C2)c1C(F)F (single isomer, unassigned; stereoisomer 2) [Example 36]	4.2	1.0
O=C(O)c1cnn(C2CCCN(c3cc(Cl)ccc3-c3ccc(N4CCN(CC(F)(F)F)CC4)nc3)C2)c1C(F)F (single isomer, unassigned; enantiomer 2) [Example 65, 1-[1-(5-Chloro-2-{6-[4-(2,2,2-trifluoroethyl)piperazin-1-yl]pyridin-3-yl}phenyl)piperidin-3-yl]-5-(difluoromethyl)-1H-pyrazole-4-carboxylic acid hydrochloride (Enantiomer 2)]	6.9	1.0
